Values of other authors as cited in publication PMC9147171, “Pharmacokinetic/Pharmacodynamic Evaluation of a New Purine-2,6-Dione Derivative in Rodents with Experimental Autoimmune Diseases” (Pharmaceutics, 2022).
Like-named read-outs stand apart in the source and are kept apart here.

Legend:
PDE7A = details: read-out: IC50 (µM) Against PDE Isoform PDE7A; cited from earlier work
[1] = rats; from the authors' previous investigations; cited from earlier work
hrPDE3A = target: T1, hrPDE3A (Homo sapiens, UniProt Q14432); set-up: method as in PMID 31899535; details: PDE3A; read-out: IC50 (µM) Against PDE Isoform (CV%) PDE3A; cited from earlier work
T1 construct: purchased SignalChem, Richmond, Canada
T1 sequence (Q14432 whole entry, canonical isoform): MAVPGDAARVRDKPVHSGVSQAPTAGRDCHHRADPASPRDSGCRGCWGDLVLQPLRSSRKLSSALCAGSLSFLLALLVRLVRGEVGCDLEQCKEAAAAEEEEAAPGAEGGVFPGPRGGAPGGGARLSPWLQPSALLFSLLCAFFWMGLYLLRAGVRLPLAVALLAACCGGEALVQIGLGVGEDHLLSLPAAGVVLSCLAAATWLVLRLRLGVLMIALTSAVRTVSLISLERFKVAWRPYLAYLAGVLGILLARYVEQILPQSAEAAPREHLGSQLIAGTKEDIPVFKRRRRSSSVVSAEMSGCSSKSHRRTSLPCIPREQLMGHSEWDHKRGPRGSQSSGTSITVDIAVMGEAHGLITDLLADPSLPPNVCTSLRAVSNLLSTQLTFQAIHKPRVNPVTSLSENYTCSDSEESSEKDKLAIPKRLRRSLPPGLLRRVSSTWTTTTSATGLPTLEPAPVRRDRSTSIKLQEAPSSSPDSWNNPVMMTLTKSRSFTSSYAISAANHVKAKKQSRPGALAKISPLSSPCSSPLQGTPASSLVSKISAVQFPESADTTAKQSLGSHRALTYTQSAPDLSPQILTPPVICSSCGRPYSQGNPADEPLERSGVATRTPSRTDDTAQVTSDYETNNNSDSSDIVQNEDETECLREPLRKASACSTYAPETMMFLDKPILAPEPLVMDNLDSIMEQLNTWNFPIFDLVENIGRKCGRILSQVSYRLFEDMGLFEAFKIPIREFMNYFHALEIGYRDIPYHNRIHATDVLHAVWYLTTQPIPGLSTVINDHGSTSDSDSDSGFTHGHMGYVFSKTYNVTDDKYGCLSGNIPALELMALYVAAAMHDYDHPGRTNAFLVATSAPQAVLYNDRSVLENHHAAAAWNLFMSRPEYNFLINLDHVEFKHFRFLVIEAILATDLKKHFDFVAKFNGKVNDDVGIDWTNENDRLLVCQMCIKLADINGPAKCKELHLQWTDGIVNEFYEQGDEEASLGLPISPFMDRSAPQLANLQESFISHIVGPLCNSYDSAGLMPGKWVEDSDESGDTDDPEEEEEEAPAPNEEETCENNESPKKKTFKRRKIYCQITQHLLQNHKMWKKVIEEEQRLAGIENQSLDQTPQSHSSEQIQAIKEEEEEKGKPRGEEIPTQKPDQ

[2] = mice; from the authors' previous investigations; cited from earlier work
PDE4B = details: read-out: IC50 (µM) Against PDE Isoform PDE4B; cited from earlier work
hrPDE1B = target: T2, hrPDE1B (Homo sapiens, UniProt Q01064); set-up: method as in PMID 31899535; details: PDE1B; read-out: IC50 (µM) Against PDE Isoform (CV%) PDE1B; cited from earlier work
T2 construct: purchased SignalChem, Richmond, Canada
T2 sequence (Q01064 whole entry, canonical isoform): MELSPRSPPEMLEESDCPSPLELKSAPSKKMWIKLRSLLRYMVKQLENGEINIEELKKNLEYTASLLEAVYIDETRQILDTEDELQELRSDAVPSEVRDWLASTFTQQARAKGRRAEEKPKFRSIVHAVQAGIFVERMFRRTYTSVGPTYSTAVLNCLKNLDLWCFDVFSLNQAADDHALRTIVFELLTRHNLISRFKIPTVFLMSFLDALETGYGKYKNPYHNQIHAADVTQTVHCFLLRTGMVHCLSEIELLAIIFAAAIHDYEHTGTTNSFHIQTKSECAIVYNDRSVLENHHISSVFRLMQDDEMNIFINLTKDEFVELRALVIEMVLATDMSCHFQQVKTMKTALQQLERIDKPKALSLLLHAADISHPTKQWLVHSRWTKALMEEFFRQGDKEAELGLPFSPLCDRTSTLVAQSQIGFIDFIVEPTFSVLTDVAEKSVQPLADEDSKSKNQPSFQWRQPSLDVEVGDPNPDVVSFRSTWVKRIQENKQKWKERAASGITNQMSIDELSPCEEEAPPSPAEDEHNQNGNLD

Structure (SMILES) | IC50 (PDE7A) | half-life [1] | IC50 (hrPDE3A) | half-life [2] | IC50 (PDE4B) | IC50 (hrPDE1B)
Cc1ccc([N+](=O)[O-])cc1S(=O)(=O)N(C)C [BRL—50481] | 2.1 µM | – | – | – | – | –
Cn1c(=O)c2c(nc(NCCc3ccccc3)n2CCCC(=O)NN=Cc2ccccc2O)n(C)c1=O [GRMS-55] | 7.3 µM | around 30 min | 13.4 µM | around 30 min | 26.9 µM | 2.5 µM
